# Laboratory results published in US5587402A, “Regression of mammalian leukemia cell tumors” (priority 1995, dated 1996).
# Assays:
# M600B cells = experiment: Inhibition of M600B cell growth; type: cell-based, human; conditions: FIG. 4
# Description: (§1) NIH3T3 (mouse embryo) cells were obtained from the American Type Culture Collection and were grown in Dulbecco's modified Eagle's medium supplemented with 10% calf serum. M600B immortalized human mammary epithelial cells (Stampfer, M. R., 1985, J. Tissue Culture Methods 9: 107-115) were obtained from Dr. Martha Stampfer and were grown in supplemented HCDB 170 medium (Hammond, et al. (1984) Proc. Natl. Acad. Sci U.S.A. 81: 5435-5439), as described previously (Stampfer, et al. (1985) Proc. Natl. Acad. Sci U.S.A. 82: 2394-2398; Eldridge, et al. (1989) Cancer Res. 49: 4326-4331).
# (§2) All cells were maintained in 100-mm dishes at 37° C. in a humidified 5% CO2 atmosphere. Viable cells were distinguished from nonviable cells by counting azure II/methylene blue-stained colonies 10 days after the cells were plated at a density of 100 cells per dish. Trypan blue exclusion was measured by incubating cells for 1 minute with one drop of trypan blue per 10 ml of cells. Viable (colorless) and nonviable (blue) cells were then counted on a hemocytometer.
# (§3) Additionally, growth of HT29 (human colon adenocarcinoma) cells was inhibited by 80% by 1 mM perillyl alcohol.
# [1] = system: isoprenylation of 21-26 kDa proteins in M600B cells; experiment: Protein isoprenylation in M600B human mammary epithelial cells; type: cell-based
# NIH3T3 cells = experiment: Inhibition of NIH3T3 cell growth; type: cell-based, mouse; conditions: FIG. 3
# Description: as §1, §2, §3
# [2] = system: mammary, lung, and stomach cancers; conditions: literature; cited from earlier work
# [3] = system: isoprenylation of 21-26 kDa proteins in NIH3T3 (mouse embryo) cells; experiment: Protein isoprenylation in NIH3T3 cells (21-26 kDa bands, SDS-PAGE fluorography); type: cell-based
# Description: NIH3T3 (mouse embryo) cells were obtained from the American Type Culture Collection and were grown in Dulbecco's modified Eagle's medium supplemented with 10% calf serum. […] Because they carried a radioactive label, isoprenylated proteins were visualized by fluorography. As a control, cells were incubated without the monoterpene. […] Whole cell extracts were analyzed by SDS-PAGE on 16-cm×18-cm×0.75-mm gels by the method of Laemmli (supra). […] Gels were stained with Coomassie Brilliant Blue, equilibrated for 20 minutes in Amplify (Amersham Corp.) fluorographic reagent, dried under vacuum at 65° C., and exposed to […] Some fluorograms were analyzed further by densitometry. […] Protein content was measured by the method of Lowry, et al. […] FIG. 1 depicts the structures of these monoterpenes.
# [4] = system: p210-transformed FDC-P1 cells; experiment: Proliferation of p210 bcr/abl-transformed FDC-P1 myeloid cells; type: cell-based, murine; conditions: up to 800 μM; FIG. 9A
# Description: (§4) (The p210 bcr/abl oncogene is carried on a helper-free retrovirus referred to as "p210.") FDC-P1 myeloid cells are an immature cell line from myeloid lineage derived from mouse bone marrow (Dexter, TM, J. Exp. Med. 152: 1036-1047, 1980).
# [5] = system: nontransformed FDC-P1 cells; experiment: Proliferation of nontransformed FDC-P1 myeloid cells; type: cell-based, murine; conditions: up to 800 μM; FIG. 9A
# Description: as §4
# [6] = system: DMBA-induced rat mammary carcinomas; experiment: Pair-feeding study: regression and inhibition of DMBA-induced mammary carcinomas in rats; type: in vivo, Wistar-Furth female rats
# Description: We used Wistar-Furth female rats for in vivo studies. Wistar-Furth female rats were obtained from Harlan Sprague-Dawley, Inc., (Madison, Wis.). […] Rates were provided Teklad Lab blox chow and acidified water ad libitum.
# The DMBA was dissolved in a stock solution of 20 mg DMBA/ml sesame oil, heated and allowed to cool to room temperature before administration. DMBA (Eastman Kodak, Rochester, N.Y.) was given as a single gastric intubation of 50 mg DMBA/kg rat body weight.
# In the pair-feeding study, a group of 70 mammals was treated with DMBA. Beginning four weeks post-carcinogen administration, mammals were weighed and palpated weekly.
# Fresh diets were make every 7-10 days. All mammals were provided fresh diet daily to minimize evaporation of the monoterpenes.
# In a pair-feeding study, all palpable mammary tumors were classified as either "primary" tumors (i.e., the first tumor(s) palpated with a minimum diameter of 3 mm) or "secondary" tumors (i.e. a palpable tumor arising after initial diet assignment). […] All carcinogen-exposed mammals not bearing a first palpable tumor by week 15 post-carcinogen were removed from the experiment. Complete regression of a tumor was defined as non-palpability for a minimum of three consecutive weeks. All mammals in the pair-feeding study were followed for a minimum of 10 weeks post-diet assignment for tumor growth or regression at primary tumor sites and all other mammary glands. The rats were necropsied if moribund. Complete necropsies were performed on all rats at the termination of the study.
# [7] = cited from earlier work
smiles,measurement,setting,value
"C=C(C)[C@@H]1CC=C(C(=O)O)CC1 [Perillic acid, reference compound]",inhibition of cell growth,M600B cells,significantly inhibited cell growth in a dose-dependent manner
same,isoprenylation of 21-26 kDa proteins,"[1]; 5 mM, FIG. 2",inhibited significantly
same,inhibition of isoprenylation,[1]; all cell types examined,inhibition of isoprenylation
same,inhibition of cell growth,NIH3T3 cells,significantly inhibited cell growth in a dose-dependent manner
"C=C(C)[C@H]1CC=C(C)CC1 [limonene, d-Limonene]","activity against mammary, lung, and stomach cancers",[2],reported to have activity against mammary
same,intensity of the 21-26-kDa bands,"[3]; 0.5 mM or 5 mM, fluorography",dose-responsive decrease in intensity
same,"intensity of the 66-, 46-, and 17-kDa bands","[3]; 0.5 mM or 5 mM, fluorography",not different from that of the control
same,activity at 500 µM,"[3]; Mus musculus, NIH3T3, 0.5 mM, slicing and scintillation counting, as reported in Crowell et al. (own work), read-out: isoprenylation of the 21-26-kDa bands remaining, of the control",~50%
same,activity at 5000 µM,"[3]; Mus musculus, NIH3T3, 5 mM, slicing and scintillation counting, as reported in Crowell et al. (own work), read-out: isoprenylation of the 21-26-kDa bands remaining, of the control",~25%
same,spot at the dye front,[3]; fluorography,reduced with maximal inhibition at 5 mM
same,effect on proliferation,[4],no effect
same,effect on proliferation,[5],no effect
same,number of secondary tumors compared with perillyl alcohol-fed mammals,[6]; 10% limonene diet versus 2.5% perillyl alcohol diet,higher
same,Time to Regress,"[6]; 10% limonene diet, Kaplan-Meier estimate of time when 25% of tumors will have regressed, p < 0.01, pair-fed control 14.5",3.25 wks
same,Primary Tumor Regression (tumors regressed / tumors),"[6]; 10% limonene diet, complete regression, p < 0.01 vs controls",19/28
same,Primary Tumor Regression (%),"[6]; 10% limonene diet, complete regression, pair-fed control 23%",68%
same,Number of Secondary Tumors/Rat,"[6]; 10% limonene diet, p < 0.01, pair-fed control 1.92",1.08
same,Secondary Tumor Regression (tumors regressed / tumors),"[6]; 10% limonene diet, p < 0.01, pair-fed control 9/48",17/27
same,Secondary Tumor Regression (%),"[6]; 10% limonene diet, pair-fed control 19%",63%
same,intensity of the 21-26 kDa bands,[1]; 5 mM limonene,marked decrease in the intensity of the 21-26 kDa bands
same,minimal effective concentration,"[1]; Homo sapiens, Epithelial cell, dose responsive, read-out: concentration required for significant inhibition of protein isoprenylation",≥ 1000 µM
same,toxicity to humans,[7]; at the required usage levels,not toxic to humans
same,side-effects,[7]; particularly when a large dose is required in a short period,not without some side-effects
